# Measurements from patent publication EP3018135A1, “A COMPOUND WITH ANTI-CARCINOGENIC EFFECT AND A METHOD FOR PRODUCTION OF THIS COMPOUND” (Ulusal Bor Arastirma Enstitusu, priority 2014, dated 2016).
# Tests used:
# [1] = system: NF-kB and c-myc mRNA expression in HL-60 cells; test: NF-kB and c-myc mRNA expression levels by real time PCR; type: cell-based; conditions: RT-PCR
# Description: (§1) In order to determine anti-carcinogenic effect of the inventive compound acute promyelocytic leukaemia (HL-60) and chronic myelogenous leukaemia (K-562) cells were used to prepare cancer cell cultures under suitable conditions. Both leukemic cell lines were subjected to the following methods: • Determination of cytotoxicity / MTT test; • Determination of apoptotic effect using flow cytometry device with Annexin V-FITC/7-AAD kit; • Determination of apoptotic effect using flow cytometry device with caspase-3/7 activation; • Determination of mitochondrial membrane integrity of cells using JC-1 dyeing method; • Determination of apoptotic DNA using DNA fragmentation method with agarose gel; • Determination of NF-kB and c-myc mRNA expression levels using real time PCR (polymerase chain reaction) method; • Gene panel study using RT-PCR method.
# [2] = system: NF-kB and c-myc mRNA expression in K562 cells; test: as above; type: cell-based; conditions: RT-PCR
# Description: as §1
# K562 cells [3] = test: Apoptotic effect by flow cytometry with Annexin V-FITC/7-AAD kit; type: cell-based
# Description: as §1
# [4] = system: NF-kB in HT-29 colon cancer cells; conditions: cited from earlier work
# NF-kB in Caco2 cells = conditions: cited from earlier work
# [5] = system: NF-kB in HCT116 colon cancer cells; conditions: cited from earlier work
# [6] = system: NF-kB levels in MM.1S cells; conditions: 12 nmol/mL, 12th and 24th hours of incubation, ELISA; cited from earlier work
# HL-60 cell line = test: Apoptotic effect by flow cytometry with Annexin V-FITC/7-AAD kit; type: cell-based
# Description: as §1
# K562 cells [7] = test: Determination of cytotoxicity / MTT test; type: cell-based
# Description: as §1
# HL-60 cells [8] = test: Determination of cytotoxicity / MTT test; type: cell-based
# Description: as §1
# K562 cells [9] = test: Apoptotic effect by flow cytometry with caspase-3/7 activation; type: cell-based; conditions: 12.5 µM, 24 hours of incubation
# Description: as §1
# K562 cells [10] = test: Mitochondrial membrane integrity, JC-1 dyeing method; type: cell-based; conditions: 12.5 µM
# Description: as §1
# HL-60 cells [11] = test: as above; type: cell-based; conditions: 12.5 µM (increase starting from 1.5 µM)
# Description: as §1
# [12] = system: NFkB-1, p53, PIK3CA, BCL-3, ICAM1, KRAS and BCR genes in K562 cells; test: Gene panel study by RT-PCR; type: cell-based; conditions: in comparison to control and Bortezomib groups
# Description: as §1
# (§2) The genes used in gene panel study with RT-PCR method include; NFKB-1, TNF, RELA, NMI, TP53, IL-6, TP53, PIK3CA, NFKB-2, BCL-3, NFKBIA, RELB, ICAM1, IL-8, KRAS, BCR, GAPDH.
# [13] = system: NFkB-1, p53, PIK3CA, BCL-3, ICAM1, KRAS and BCR genes in HL-60 cells; test: Gene panel study by RT-PCR; type: cell-based; conditions: in comparison to control and Bortezomib groups, decrease more effective than in K562 cells
# Description: as §1, §2
molecule,measurement,setting,value
"CC(C)C[C@H](NC(=O)[C@H](Cc1ccccc1)NC(=O)c1cnccn1)B(O)O [Bortezomib, reference compound]",expression of NF-kB gene,[1],decreases expression
same,expression of NF-kB gene,[2],decreases expression
same,early apoptotic cell ratio,"K562 cells [3]; K562 cells, 3.12 µM, 24th hour",18.1%
same,NF-kB inhibition,[4],NF-kB inhibition was observed
same,NF-kB inhibition,NF-kB in Caco2 cells,not observed
same,NF-kB inhibition,[5],NF-kB inhibition was observed
CC(C)C[C@H](NC(=O)CNC(=O)c1cc(Cl)ccc1Cl)B(O)O [MLN2238],NF-kB levels,[6],significant decreases
"(4-(2-amino-2-(10,11-dioxo-10,11-dihydro-5H-imidaso[1,5,4,3-lmn][1,10]phenanthrolin-5-il]ethyl]phenyl]boronic acid [inventive compound]",c-myc expression,[1],decreased
same,expression of NF-kB gene,[1],decreases expression
same,expression of NF-kB gene,[2],decreases expression
same,c-myc expression,[2]; versus control group,higher than control group values
same,apoptotic cell ratio,"K562 cells [3]; K562 cells, 1.5 µM",13.7%
same,early and late apoptotic cell rate,"K562 cells [3]; K562 cells, 12.5 µM",38.2%
same,apoptotic effect,"K562 cells [3]; K562 cells, 1.5, 3.12, 6.25 and 12.5 µM, 24th hour",increased the apoptotic effect
same,early-late apoptotic and necrotic cell rates,"K562 cells [3]; K562 cells, concentrations of 6.5 and 12.5 µM, compared to control",increase compared to control
same,early apoptotic effect,HL-60 cell line; Annexin-V/7-AAD,has not displayed early apoptotic effect
same,necrotic cell rates,"HL-60 cell line; concentrations of 3.12 µM and more, compared to control",increase compared to control
same,IC50,K562 cells [7]; 24th hour,2620 nM
same,IC50,K562 cells [7]; 48th hour,3410 nM
same,IC50,HL-60 cells [8]; 24th hour,2160 nM
same,IC50,HL-60 cells [8]; 48th hour,2850 nM
same,"increase in the ratio of caspase 3/7 positive cells, K562 cells in comparison to HL-60 cells",K562 cells [9],2 times
same,ratio of JC-1 positive cells,K562 cells [10],14.7%
same,ratio of JC-1 positive cells,HL-60 cells [11],37.1%
same,"expression of NFkB-1, p53, PIK3CA, BCL-3, ICAM1, KRAS and BCR genes",[12],decreases expression
same,"expression of NFkB-1, p53, PIK3CA, BCL-3, ICAM1, KRAS and BCR genes",[13],decreases expression
